Earlier results as cited in patent US9283189B2, “Sustained-release preparation of ivabradine or pharmaceutically acceptable salts thereof” (Jiangsu Hengrui Medicine Co., Ltd., priority 2011, dated 2016).

Influence on glucose or lipid metabolism (chronic stable angina; human, in vivo): no influence
Rebound effect following the withdrawal of treatment (chronic stable angina; human, in vivo): no rebound effect
Average plasma concentration at steady state (5 mg twice daily, CV=38%): 10 ng/mL
Main half-life in plasma (70˜75% of the AUC): 2 h
Maximum plasma concentration (chronic administration, 5 mg twice daily, CV=29%): 22 ng/mL
Volume of distribution at steady state (in patients): ~100 L
Effective half-life (in vivo): 11 h
Plasma protein bound (in vivo): approximately 70%
Renal clearance (in vivo): approximately 70 ml/min
Total clearance (in vivo): about 400 ml/min
Oral dose excreted unmetabolized in urine (in vivo, po): About 4%
Time to peak plasma level (oral administration, fasting condition): about 1 hour
Kinetics (dose proportionality) (oral dose range of 0.5 mg˜24 mg): linear
Structure (SMILES): COc1cc2c(cc1OC)CC(=O)N(CCCN(C)CC1Cc3cc(OC)c(OC)cc31)CC2 (centres unmarked) [Ivabradine]
Angina attacks (chronic stable angina; 5 mg and 7.5 mg twice daily, patients with chronic stable angina): significant decrease
